This is an account of results in US10259786B2, “Psychotropic agents and uses thereof” (LB PHARMACEUTICALS INC., priority 2016, dated 2019).

Each structure is given as a SMILES string.

The test system of data set [1] is PCP-treated rats. In words: Novel Object Recognition (NOR) assay, sub-chronic PCP. As to conditions: PO; for difference between novel and familiar object exploration time: 3 hours post-dose, all doses save one; for known object exploration behavior in rats treated with PCP: compared to untreated rats. The data set is classed as in vivo, rat. The procedure:
Efficacy of Compounds 102 and 103 was evaluated in rats in a Novel Object Recognition (NOR) assay, a well-established model recapitulating cognitive and negative aspects of the PANSS scale of schizophrenia. In this assay, animals were treated for several weeks with a low dose of phencyclidine (PCP) to impair the ability of the rat to discern between novel and familiar objects. Typically rats, like humans, would spend more time exploring a novel object than a familiar one.
Rats (n=10/group) were dosed with 2 mg/kg intraperitoneal twice a day (i.p., b.i.d.) for seven days followed by 7 days drug free. […] Novel object exploration time was measured for the test subjects from a sub-chronic PCP NOR study in rats (n=10/group). The differences in exploration time between novel (Tnovel¬) and familiar (Tfamliar) objects are depicted in FIG. 1A (*: p<0.05; and **: p<0.01).

For data set [2] the following is noted: 2014 study, 30 psychiatric drugs tested; cited from earlier work.
Data set [3] deals with D4 receptor (Homo sapiens (Human), UniProt P21917). As to conditions: D4 receptor subtype; cited from earlier work.
In data set [4] the target is D1 receptor (Homo sapiens (Human), UniProt P21728). As to conditions: D1 receptor subtype; cited from earlier work.
The target of data set [5] is D5 receptor (Homo sapiens (Human), UniProt P21918). As to conditions: D5 receptor subtype; cited from earlier work.
Sequence of D5 receptor (P21918 whole entry): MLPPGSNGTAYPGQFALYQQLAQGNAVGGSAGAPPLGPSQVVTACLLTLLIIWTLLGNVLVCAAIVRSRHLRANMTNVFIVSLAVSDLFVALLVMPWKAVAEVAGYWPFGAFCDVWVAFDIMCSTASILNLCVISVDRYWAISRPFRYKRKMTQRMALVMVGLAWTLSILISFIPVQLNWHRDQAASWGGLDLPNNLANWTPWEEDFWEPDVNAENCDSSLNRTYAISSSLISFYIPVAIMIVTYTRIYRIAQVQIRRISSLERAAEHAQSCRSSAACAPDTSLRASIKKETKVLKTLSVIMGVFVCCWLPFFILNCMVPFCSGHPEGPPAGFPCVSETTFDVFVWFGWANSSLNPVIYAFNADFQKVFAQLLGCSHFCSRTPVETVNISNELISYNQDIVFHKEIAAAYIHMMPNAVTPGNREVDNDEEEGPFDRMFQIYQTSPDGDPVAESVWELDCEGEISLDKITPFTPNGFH

Sequence of D1 receptor (P21728 whole entry): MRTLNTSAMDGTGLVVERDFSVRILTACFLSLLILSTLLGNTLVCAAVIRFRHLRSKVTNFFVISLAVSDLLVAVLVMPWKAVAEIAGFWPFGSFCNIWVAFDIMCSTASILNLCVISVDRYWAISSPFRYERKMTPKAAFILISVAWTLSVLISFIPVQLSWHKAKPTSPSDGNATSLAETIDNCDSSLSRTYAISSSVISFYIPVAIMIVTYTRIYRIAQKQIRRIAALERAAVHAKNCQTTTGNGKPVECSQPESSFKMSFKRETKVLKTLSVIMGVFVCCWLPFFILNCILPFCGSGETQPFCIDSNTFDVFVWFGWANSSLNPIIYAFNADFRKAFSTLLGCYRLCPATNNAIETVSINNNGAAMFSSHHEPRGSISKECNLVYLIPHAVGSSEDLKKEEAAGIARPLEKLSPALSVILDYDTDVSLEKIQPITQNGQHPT
Sequence of D4 receptor (P21917 whole entry): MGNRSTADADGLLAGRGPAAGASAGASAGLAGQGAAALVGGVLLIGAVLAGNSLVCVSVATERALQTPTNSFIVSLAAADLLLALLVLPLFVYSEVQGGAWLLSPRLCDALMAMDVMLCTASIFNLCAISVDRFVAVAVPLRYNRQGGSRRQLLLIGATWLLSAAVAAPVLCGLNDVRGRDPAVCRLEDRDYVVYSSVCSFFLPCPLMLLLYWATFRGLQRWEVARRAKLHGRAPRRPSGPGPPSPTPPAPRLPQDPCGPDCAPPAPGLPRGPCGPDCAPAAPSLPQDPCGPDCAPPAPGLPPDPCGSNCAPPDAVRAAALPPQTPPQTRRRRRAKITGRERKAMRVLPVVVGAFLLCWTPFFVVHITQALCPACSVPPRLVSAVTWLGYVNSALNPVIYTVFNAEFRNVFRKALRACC

As to `CCN1CCCC1CNC(=O)c1cc(S(=O)(=O)CC)c(NC)cc1OC` (centres unmarked) [Compound 102], in data set [1], the “difference between novel and familiar object exploration time” value is recorded as “increased”; the “known object exploration behavior in rats treated with PCP” value is “able to restore known object exploration behavior in rats treated with PCP to levels similar to untreated rats”.

For the molecule `CCN1CCCC1CNC(=O)c1cc(S(=O)(=O)CC)c(N)cc1OC` (centres unmarked) [Amisulpride, 4-amino-N-(((1-ethyl-2-pyrrolidinyl)methyl)-5-(ethylsulfonyl))-2-methoxybenzamide], the “passive diffusion across a PAMPA membrane (Pe)” value in data set [2] was “lowest of 30 psychiatric drugs tested”. For the same molecule, the affinity result in data set [3], in data set [4] and in data set [5] was “without any affinity” in each case.

As to `CCN1CCC[C@H]1CNC(=O)c1cc(S(=O)(=O)CC)c(NC)cc1OC` [Compound 103, ((S)-4-methylamino-N-((1-ethyl-2-pyrrolidinyl)methyl)-5-(ethylsulfonyl))-2-methoxybenzamide], in data set [1], the “difference between novel and familiar object exploration time” value was “increased”; the “known object exploration behavior in rats treated with PCP” value is reported as “able to restore known object exploration behavior in rats treated with PCP to levels similar to untreated rats”.
